Values after ≈ are worked out from the molar mass of the structure shown. Values joined by “and” are separate entries in the source; they are usually repeats but may differ in a detail not shown here. Identical values can stand only once. Like-named read-outs stand apart in the source and are kept apart here.
System: infectious agents (strains tested)
Assay: organism not typed
Format: cell-based

`OC(Cn1cncn1)(Cn1cncn1)c1ccc(F)cc1F` [FLZ] was tested. Which “Geometric Mean MIC” value did it give?
The value was 16.450 µg/mL and 19.027 µg/mL.

What about the “Geometric Mean MIC” value (Absidia spp) of the same compound?
Its value is 143.675 µg/mL.

And the “Geometric Mean MIC” value (Apophysomyces spp)?
Its value is 128.000 µg/mL.

What about the “MIC[90]” value (Apophysomyces spp) of the same compound?
The value was “(128.0) μg/mL”.

What about the “Geometric Mean MIC” value (Aspergillus flavus) of the same compound?
The value was 220.898 µg/mL.

What about the “MIC[90]” value (Aspergillus fumigatus) of the same compound?
The value was 512.0 µg/mL (≈ 1670 µM).

And the “Geometric Mean MIC” value (Aspergillus nidulans)?
Its value is 76.109 µg/mL.

And the “MIC[90]” value (Aspergillus nidulans)?
The value was “(32.0-128.0) μg/mL”.

And the “Geometric Mean MIC” value (Aspergillus niger)?
The value was 234.753 µg/mL.

And the “Geometric Mean MIC” value (Aspergillus sydowii)?
The value was 115.933 µg/mL.

And the “Geometric Mean MIC” value (Aspergillus terreus)?
Its value is 208.327 µg/mL.

And the “Geometric Mean MIC” value (Aspergillus ustus)?
Its value is 172.275 µg/mL.

And the “Geometric Mean MIC” value (Bipolaris spp)?
The value was 64.000 µg/mL.

And the “MIC[90]” value (Bipolaris spp)?
Its value is “(64.0) μg/mL”.

And the “Geometric Mean MIC” value (Bjerkandera adusta)?
Its value is 4.000 µg/mL.

What about the “MIC[90]” value (Bjerkandera adusta) of the same compound?
Its value is 4.0 µg/mL (≈ 13.1 µM).

What about the “Geometric Mean MIC” value (Blastomyces dermatitidis) of the same compound?
Its value is 2.191 µg/mL.

What about the “MIC[90]” value (Blastomyces dermatitidis) of the same compound?
Its value is 16.0 µg/mL (≈ 52.2 µM).

What about the “Geometric Mean MIC” value (Candida albicans) of the same compound?
The value was 0.415 µg/mL.

What about the “MIC[90]” value (Candida albicans) of the same compound?
Its value is 2.0 µg/mL (≈ 6.53 µM).

And the “Geometric Mean MIC” value (Candida dubliniensis)?
The value was 0.454 µg/mL.

And the “MIC[90]” value (Candida dubliniensis)?
Its value is 32.0 µg/mL (≈ 104 µM).

And the “Geometric Mean MIC” value (Candida famata)?
The value was 4.084 µg/mL.

What about the “MIC[90]” value (Candida famata) of the same compound?
The value was 32.0 µg/mL (≈ 104 µM).

And the “Geometric Mean MIC” value (Candida glabrata)?
Its value is 9.719 µg/mL.

What about the “MIC[90]” value (Candida glabrata) of the same compound?
The value was 64.0 µg/mL (≈ 209 µM).

What about the “Geometric Mean MIC” value (Candida guilliermondii) of the same compound?
Its value is 4.000 µg/mL.

What about the “MIC[90]” value (Candida guilliermondii) of the same compound?
The value was 32.0 µg/mL (≈ 104 µM).

And the “Geometric Mean MIC” value (Candida kefyr)?
The value was 0.500 µg/mL.

What about the “MIC[90]” value (Candida kefyr) of the same compound?
The value was 4.0 µg/mL (≈ 13.1 µM).

And the “Geometric Mean MIC” value (Candida krusei)?
Its value is 32.521 µg/mL.

What about the “MIC[90]” value (Candida krusei) of the same compound?
Its value is 64.0 µg/mL (≈ 209 µM).

What about the “Geometric Mean MIC” value (Candida lusitaniae) of the same compound?
Its value is 0.627 µg/mL.

What about the “MIC[90]” value (Candida lusitaniae) of the same compound?
The value was 2.0 µg/mL (≈ 6.53 µM).

And the “Geometric Mean MIC” value (Candida parapsilosis)?
Its value is 0.910 µg/mL.

What about the “MIC[90]” value (Candida parapsilosis) of the same compound?
Its value is 2.0 µg/mL (≈ 6.53 µM).

What about the “Geometric Mean MIC” value (Candida rugosa) of the same compound?
Its value is 3.391 µg/mL.

What about the “MIC[90]” value (Candida rugosa) of the same compound?
Its value is 16.0 µg/mL (≈ 52.2 µM).

What about the “Geometric Mean MIC” value (Candida tropicalis) of the same compound?
Its value is 0.961 µg/mL.

What about the “MIC[90]” value (Candida tropicalis) of the same compound?
Its value is 4.0 µg/mL (≈ 13.1 µM).

What about the “Geometric Mean MIC” value (Candida zeylanoides) of the same compound?
The value was 0.354 µg/mL.

And the “MIC[90]” value (Candida zeylanoides)?
Its value is “(0.125-1.0) μg/mL”.

What about the “Geometric Mean MIC” value (Cryptococcus laurentii) of the same compound?
The value was 5.040 µg/mL.

What about the “MIC[90]” value (Cryptococcus laurentii) of the same compound?
The value was “(4.0-8.0) μg/mL”.

What about the “Geometric Mean MIC” value (Cryptococcus neoformans) of the same compound?
Its value is 1.781 µg/mL.

What about the “MIC[90]” value (Cryptococcus neoformans) of the same compound?
Its value is 8.0 µg/mL (≈ 26.1 µM).

What about the “Geometric Mean MIC” value (Curvularia spp) of the same compound?
The value was 16.000 µg/mL.

And the “MIC[90]” value (Curvularia spp)?
Its value is “(16.0) μg/mL”.

What about the “Geometric Mean MIC” value (Epidermophyton floccosum) of the same compound?
The value was 1.447 µg/mL.

What about the “MIC[90]” value (Epidermophyton floccosum) of the same compound?
The value was 2.0 µg/mL (≈ 6.53 µM).

What about the “Geometric Mean MIC” value (Exophiala dermatidis) of the same compound?
The value was 8.000 µg/mL.

What about the “MIC[90]” value (Exophiala dermatidis) of the same compound?
Its value is “(8.0) μg/mL”.

And the “Geometric Mean MIC” value (Fonsecae pedrosoi)?
The value was 64.000 µg/mL.

What about the “MIC[90]” value (Fonsecae pedrosoi) of the same compound?
Its value is “(64.0) μg/mL”.

And the “Geometric Mean MIC” value (Kluyveromyces marxianus)?
Its value is 0.500 µg/mL.

What about the “MIC[90]” value (Kluyveromyces marxianus) of the same compound?
The value was “(0.25-1.0) μg/mL”.

What about the “Geometric Mean MIC” value (Microsporum canis) of the same compound?
Its value is 2.000 µg/mL.

What about the “MIC[90]” value (Microsporum canis) of the same compound?
Its value is 4.0 µg/mL (≈ 13.1 µM).

What about the “Geometric Mean MIC” value (Microsporum gypseum) of the same compound?
Its value is 16.000 µg/mL.

And the “MIC[90]” value (Microsporum gypseum)?
The value was “(4.0-128.0) μg/mL”.

What about the “Geometric Mean MIC” value (Microsporum persicolor) of the same compound?
Its value is 128.000 µg/mL.

What about the “MIC[90]” value (Microsporum persicolor) of the same compound?
Its value is “(128.0) μg/mL”.

And the “Geometric Mean MIC” value (Mucor spp)?
Its value is 207.937 µg/mL.

What about the “Geometric Mean MIC” value (Paecilomyces spp) of the same compound?
Its value is 141.323 µg/mL.

And the “Geometric Mean MIC” value (Paracoccidioides brasiliensis)?
Its value is 0.766 µg/mL.

And the “MIC[90]” value (Paracoccidioides brasiliensis)?
The value was 4.0 µg/mL (≈ 13.1 µM).

What about the “Geometric Mean MIC” value (Penicillium spp) of the same compound?
The value was 220.996 µg/mL.

What about the “Geometric Mean MIC” value (Pichia anomala) of the same compound?
Its value is 2.670 µg/mL.

And the “MIC[90]” value (Pichia anomala)?
Its value is 4.0 µg/mL (≈ 13.1 µM).

What about the “Geometric Mean MIC” value (Pichia etchel) of the same compound?
The value was 0.125 µg/mL.

What about the “MIC[90]” value (Pichia etchel) of the same compound?
The value was “(0.125) μg/mL”.

And the “Geometric Mean MIC” value (Pichia ohmeri)?
The value was 4.000 µg/mL.

What about the “MIC[90]” value (Pichia ohmeri) of the same compound?
Its value is “(4.0) μg/mL”.

And the “Geometric Mean MIC” value (Pseudallescheria boydii)?
Its value is 41.237 µg/mL.

What about the “MIC[90]” value (Pseudallescheria boydii) of the same compound?
Its value is 128.0 µg/mL (≈ 418 µM).

And the “Geometric Mean MIC” value (Ramichloridium obovoideum)?
Its value is 22.627 µg/mL.

And the “MIC[90]” value (Ramichloridium obovoideum)?
Its value is “(16.0-32.0) μg/mL”.

What about the “Geometric Mean MIC” value (Rhizopus spp) of the same compound?
The value was 229.461 µg/mL.

And the “Geometric Mean MIC” value (Saccharomyces cerevisiae)?
The value was 2.845 µg/mL.

What about the “MIC[90]” value (Saccharomyces cerevisiae) of the same compound?
Its value is 16.0 µg/mL (≈ 52.2 µM).

What about the “Geometric Mean MIC” value (Scedosporium apiospermum) of the same compound?
Its value is 84.449 µg/mL.

What about the “Geometric Mean MIC” value (Trichophyton mentagrophytes) of the same compound?
The value was 9.190 µg/mL.

And the “MIC[90]” value (Trichophyton mentagrophytes)?
The value was 64.0 µg/mL (≈ 209 µM).

And the “Geometric Mean MIC” value (Trichophyton raubitschekii)?
The value was 128.000 µg/mL.

What about the “MIC[90]” value (Trichophyton raubitschekii) of the same compound?
The value was “(128.0) μg/mL”.

What about the “Geometric Mean MIC” value (Trichophyton rubrum) of the same compound?
The value was 4.407 µg/mL.

And the “MIC[90]” value (Trichophyton rubrum)?
Its value is 32.0 µg/mL (≈ 104 µM).

What about the “Geometric Mean MIC” value (Trichophyton soudanense) of the same compound?
Its value is 128.000 µg/mL.

And the “MIC[90]” value (Trichophyton soudanense)?
The value was “(128.0) μg/mL”.

And the “Geometric Mean MIC” value (Trichophyton terrestre)?
The value was 1.000 µg/mL.

What about the “MIC[90]” value (Trichophyton terrestre) of the same compound?
The value was “(1.0) μg/mL”.

What about the “Geometric Mean MIC” value (Trichophyton tonsurans) of the same compound?
Its value is 3.775 µg/mL.

What about the “MIC[90]” value (Trichophyton tonsurans) of the same compound?
The value was 32.0 µg/mL (≈ 104 µM).

And the “Geometric Mean MIC” value (Trichosporon spp)?
Its value is 12.699 µg/mL.

And the “MIC[90]” value (Trichosporon spp)?
Its value is “(4.0-64.0) μg/mL”.

What about the “Geometric Mean MIC” value (Yarrowia lipolytica) of the same compound?
The value was 1.741 µg/mL.

And the “MIC[90]” value (Yarrowia lipolytica)?
The value was “(0.125-32.0) μg/mL”.

Reference: patent US20090226527A1, “Particulate-stabilized injectable pharmacutical compositions of posaconazole” (priority 2004, published 2009)
